In patent EP0838471A1, “PEPTIDE DERIVATIVES AND ANGIOTENSIN IV RECEPTOR AGONIST” (SAGAMI CHEMICAL RESEARCH CENTER, priority 1995, dated 1997):
Where a name gives a salt, the structure may show the parent alone.

target: T1, angiotensin IV receptor (Cavia porcellus, UniProt H0VNM7); assay: Binding to angiotensin IV receptor (125I-angiotensin IV displacement, crude membrane specimen); conditions: Hartley guinea pig hippocampus membrane; 0.2 nM 125I-angiotensin IV; 37°C for 90 minutes; nonspecific bond with 1 µM angiotensin IV
T1 sequence (H0VNM7 1-1025): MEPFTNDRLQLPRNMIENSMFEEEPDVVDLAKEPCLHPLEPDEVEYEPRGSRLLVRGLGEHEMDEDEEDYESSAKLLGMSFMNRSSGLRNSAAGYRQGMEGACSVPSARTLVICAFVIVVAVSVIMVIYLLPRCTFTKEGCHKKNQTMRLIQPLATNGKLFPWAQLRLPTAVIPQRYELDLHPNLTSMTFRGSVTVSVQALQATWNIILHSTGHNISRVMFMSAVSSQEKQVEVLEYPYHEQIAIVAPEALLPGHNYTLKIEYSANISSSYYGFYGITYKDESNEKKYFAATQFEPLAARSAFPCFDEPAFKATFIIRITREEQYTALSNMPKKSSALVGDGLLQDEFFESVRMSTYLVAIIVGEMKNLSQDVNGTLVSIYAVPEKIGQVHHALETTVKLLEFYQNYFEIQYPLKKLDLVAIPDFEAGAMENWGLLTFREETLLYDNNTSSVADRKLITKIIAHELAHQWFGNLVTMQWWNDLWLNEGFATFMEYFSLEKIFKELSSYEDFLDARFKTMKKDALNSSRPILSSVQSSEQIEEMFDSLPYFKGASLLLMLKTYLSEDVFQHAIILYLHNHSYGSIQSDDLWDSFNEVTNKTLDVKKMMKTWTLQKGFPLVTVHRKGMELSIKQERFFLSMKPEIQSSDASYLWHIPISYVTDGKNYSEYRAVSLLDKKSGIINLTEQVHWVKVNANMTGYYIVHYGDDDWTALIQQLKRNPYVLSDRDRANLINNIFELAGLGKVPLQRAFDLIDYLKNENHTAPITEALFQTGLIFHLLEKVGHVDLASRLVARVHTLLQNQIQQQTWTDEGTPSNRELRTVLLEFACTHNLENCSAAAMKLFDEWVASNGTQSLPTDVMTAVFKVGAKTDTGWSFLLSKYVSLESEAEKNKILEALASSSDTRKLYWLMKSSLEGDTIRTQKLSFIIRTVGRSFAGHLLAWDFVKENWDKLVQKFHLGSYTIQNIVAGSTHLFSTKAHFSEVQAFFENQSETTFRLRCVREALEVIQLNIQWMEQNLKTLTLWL
Experimental: The capability of binding to angiotensin IV receptor was measured by using Hartley guinea pig hippocampus in accordance with the method reported by Miller-Wing et al., J. Pharmacol. Exp. Therp., 266:1718 (1993).
The Hartley guinea pig hippocampus was homogenized in a 50 mM Tris hydrochloride buffer solution (pH 7.4) containing 1 mM of ethylenediamine-N,N,N',N'-tetraacetic acid (EDTA) and 100 µm of phenylmethanesufonyl fluoride (PMSF). After centrifuging at 900 × g, the supernatant thus obtained was further centrifuged at 48,000 × g. The precipitate was washed once with the same buffer solution and then the precipitate was suspended in a 50 mM Tris hydrochloride buffer solution (pH 7.4) containing 150 mM of sodium chloride, 1 mM of EDTA, 100 µm of PMSF and 0.1% of bovine serum albumin (BSA) in such a manner as to give a protein concentration of 50 µg/ml to thereby give a crude membrane specimen.
This membrane specimen was allowed to react with 0.2 nM ^125I-angiotensin IV and a test compound dissolved in dimethyl sulfoxide at 37°C for 90 minutes. Then ^125I-angiotensin IV binding to the membrane was filtered under suction onto GF/B filer paper with the use of a cell harvester for laboratory use. The radioactivity on the filter paper was measured with a gamma-counter. The nonspecific bond was measured in the presence of 1 µM of angiotensin IV and the specific bond was calculated by subtracting the nonspecific bond from the total bond. The capability (IC50) of the test compound of binding to angiotensin IV receptor was determined as the concentration of the test compound capable of inhibiting the binding at an extent of 50% from the inhibition curve obtained by reacting 0.2 nM ^125I-angiotensin IV with the test compound at various concentrations.

Row | IC50 [nM] | Molecule
1 | 0.4 | N'-[N-[L-2-amino-3-(ethylthio)propionyl]-L-tyrosyl]-N-(2-phenylethyl)-L-leucinamide hydrochloride [Example 18]
2 | 12.6 | N'-[N-(L-norleucyl)-N^im-benzyl-L-histidyl]-N-(2-phenylethyl)-L-leucinamide dihydrochloride [Example 33]

The next lines start with the molecule.

Row | Molecule | IC50 [nM]
3 | L-valyl-L-tyrosyl-N-(4-pyridylmethyl)-L-isoleucinamide [Example 9] | 5.99
4 | CCCC[C@H](N)C(=O)N[C@@H](Cc1ccc(O)cc1)C(=O)N[C@@H](CCc1ccc(C)cc1)[C@@H](C)CC [Example 61, (3S,4S)-N'-(L-norleucyl)-N-[4-methyl-1-(4-methylphenyl)-1-hexan-3-yl]-L-tyrosinamide hydrochloride] | 24.2
5 | CC[C@H](C)[C@H](CCc1ccccc1)NC(=O)[C@H](Cc1ccc(O)cc1)NC(=O)[C@@H](N)C(C)C [Example 59, (3S,4S)-N'-(L-valyl)-N-(4-methyl-1-phenylhexan-3-yl)-L-tyrosinamide hydrochloride] | 26.5
